Values of other authors in US12551473B2, “Compositions and methods for increasing athletic performance” (VDF Futureceuticals, Inc., priority 2015, dated 2026).

What was measured:
systolic blood pressure = conditions: 5.5 mmol/day, acute (1 day) and chronic (6 day), during cycling in healthy young men
skin blood flow = conditions: during cycling exercise at 55% VO2max

Structure (SMILES) | reduced systolic blood pressure (mean) (systolic blood pressure) [mmHg] | skin blood flow (skin blood flow)
O=[N+]([O-])O [nitrate] | 6 | –
CN(C)C(=O)Oc1ccc[n+](C)c1 [pyridostigmine] | – | reduces
